Patent US12115152B2, “Pan-RAF kinase inhibitor and use thereof” (HEFEI INSTITUTES OF PHYSICAL SCIENCE, CHINESE ACADEMY OF …, priority 2019, dated 2024)

What was measured:
[1] = tested on: Calu-6 transplanted tumor nude mice; test: Toxicity in Calu-6 cell transplanted tumor mouse model; conditions: Calu-6 cell transplanted tumor model, oral daily; Compound 16 50, 100, 200 mg/kg; Comparative Compound 1 100 mg/kg
[2] = tested on: human acute leukemia cell NB4 (expressing KRAS-A18D mutant kinase); test: Effect on proliferation of cancer cells, Cell Titer-Glo, 72 hours; type: cell-based; conditions: NB-4
Experimental: (§1) The compounds of the present invention were tested for their effect on growth of cancer cells (Table 2), to further evaluate the compounds herein for their inhibitory effect on proliferation of cancer cells and their selectivity in inhibiting proliferation of cancer cells.
(§2) The above-mentioned BaF3-FL-BRAF-V600E mutant cell line was constructed by the method as follows. The sequence of human full-length BRAF-V600E mutant kinase region was amplified by PCR, inserted into a MSCV-Puro vector (purchased from Clontech), and stably transfected into mouse BaF3 cells by the retroviral method, and the growth factor IL-3 was removed. Eventually, a cell line dependent on a full-length BRAF-V600E protein having various mutation transferred was obtained.
(§3) In the example, solutions of the test compound in DMSO at different concentrations (0.000508 μM, 0.00152 μM, 0.00457 μM, 0.0137 μM, 0.0411 μM, 0.123 μM, 0.370 μM, 1.11 μM, 3.33 μM, 10 μM) was added to the above cells respectively. The cells were incubated for 72 hours. The number of viable cells was detected with a Cell Titer-Glo (Promega, USA) Cell Viability Assay Kit by quantifying the ATP in viable cells. The values of GI50 (unit) of the compounds of the present invention against each of the test cells were determined.

[3] = tested on: human acute leukemia cell OCI-AML-3 (expressing NRAS-Q61L mutant kinase); test: as above; type: cell-based; conditions: OCI-AML-3 cells
Experimental: as §1, §2, §3

SMILES | toxicity [1] | GI50 [2] | GI50 [3]
Cc1ccc(NC(=O)c2cccc(C(F)(F)F)c2)cc1-n1cc(-c2cccnc2)cn1 [compound 1, 3-trifluoromethyl-N-(4-methyl-3-(4-(pyrid-3-yl)-1H-pyrazol-1-yl)phenyl)benzamide, reference compound] | very strong toxicity as all mice died on Day 8 | 83 nM | 20 nM
Cc1ccc(NC(=O)c2cccc(C(F)(F)F)c2)cc1-n1cc(-c2cncc(N3CCOCC3)c2)cn1 [Example 16, N-(4-methyl-3-(4-(5-morpholinopyrid-3-yl)-1H-pyrazol-1-yl)phenyl)-3-(trifluoromethyl)benzamide] | did not exhibit any toxicity | 27 nM | 21 nM
